# Source: patent publication EP2343074A1, “Use of purine analogues for treating airway diseases” (Merck Serono S.A., priority 2009, dated 2011)
# Key:
# [1] = system: BALB/c mice; format: in vivo; conditions: female BALB/c mice
# Procedure: Female BALB/c mice, aged 10-12 wk, are housed in environmentally controlled specific pathogen-free conditions for 1 wk before study and for the duration of the experiments, which are performed according to J Appl Physiol, VOL 97, 2004, 2258-2265. Accordingly, mice are sensitized with intraperitoneal ovalbumin conjugated to aluminum potassium sulfate, as described in Am J Respir Cell Mol Biol 21: 473-479, 1999. Sensitized mice are subjected to either brief or chronic periods of allergen exposure, as described in Am J Respir Cell Mol Biol 27: 526-535, 2002. Control mice are subjected to the same sensitization protocol but are receiving saline challenges.
# Allergen-challenged and control mice are studied at 24 h after the final exposure (at day 21) in the brief allergen-challenge protocol and at week 4 after the final exposure in the chronic allergen-challenge protocol. […]
# At day 21 or week 4, respectively, the underlying contributors to airway responsiveness, namely airway reactivity [slope of increase in total respiratory system resistance (Rrs) for a given increase in MCh dose], airway sensitivity (lowest dose of MCh to produce bronchoconstriction), and the maximum inducible bronchoconstriction (maximum Rrs) are measured following brief or chronic allergen challenge. These components of airway responsiveness are measured based on the response of Rrs to saline and increasing (10, 33, 100, and 330 µg/kg) intravenous doses of MCh. Rrs is measured by using the flow interrupter technique, modified for use in mice, and described in Am J Respir Cell Mol Biol 21: 473-479, 1999, Am J Respir Cell Mol Biol 27: 526-535, 2002 and J Appl Physiol 89: 413-421, 2000. Total respiratory system resistance (Rrs) is measured in response to increasing doses of intravenous methacholine (MCh). Using the resulting Rrs-MCh dose-response curve, indexes of airway reactivity (Slope Rrs), airway sensitivity, or the lowest dose to produce bronchoconstriction (Break Rrs) and maximal degree of bronchoconstriction (Max Rrs) are measured. […]
# [2] = system: patient having asthma with recurring asthma attacks; assay: Treatment of an asthma patient with oral cladribine tablets; format: in vivo; conditions: dosage regimen disclosed in WO2006067141
# Procedure: A patient having asthma with recurring asthma attacks is treated with oral cladribine tablets and following the dosage regimen disclosed in WO2006067141. As a result, the symptoms of asthma and airway hyperresponsiveness are reduced in this patient.
smiles,measurement,setting,value
"Nc1nc(Cl)nc2c1ncn2[C@H]1C[C@H](O)[C@@H](CO)O1 [cladribine, 2-chloro-9-(2'-deoxy-beta-D-ribofuranosyl)-adenine]","signs of asthma, increased airway reactivity and maximal bronchoconstriction","[1]; brief or chronic allergen exposure, cladribine intraperitoneally 15 mg/kg per injection, as compared to the control",beneficial to reduce
same,asthma related symptoms such as increased bronchoconstriction and allergen-induced development of AHR,"[1]; brief or chronic allergen exposure, cladribine intraperitoneally on days 1, 5 and 9, 15 mg/kg body weight per injection, versus phosphate buffer without cladribine",reduces or abrogates
same,host toxicity,"[1]; cladribine intraperitoneally on days 1, 5 and 9, 15 mg/kg body weight per injection",little or no host toxicity
same,symptoms of asthma and airway hyperresponsiveness,[2],reduced
